Structures can show the parent of a compound that is named as a salt.
How the values were obtained:
[1] = test system: gastric secretion; experiment: Effect on gastric secretion (Shay pylorus ligation); assay type: in vivo; conditions: 10 mg/kg s.c., pylorus-ligated female Wistar rats, 4 hours
Description: The experiment was performed according to the method of Shay et al described in Gastroenterology, vol 5, p. 43, 1945.
Groups of ten female Wistar rats, weighing 130.200 g, were deprived of food and the abdomen of each rat was incised and the pylorus ligated under ether anesthesia. Immediately after pylorus ligation, 10 mg/kg of test compounds were subcutaneously administered. After 4 hours, the gastric contents were collected and centrifuged. The supernatant was regarded as volume of gastric secretion. The acidity of gastric juice was determined by titrating the gastric juice with 0.1N sodium hydroxide to pH 7.0 with an automatic titrator (Kyoto Denshi Kogyo K.K., AT-107).
The percent inhibitions (%) of the compounds of the present invention on volume of gastric juice secretion and acidity of gastric juice were calculated and the results are summarized in Table 1.

[2] = test system: hypoxia; experiment: Effect on hypoxia (survival time); assay type: in vivo, female dd-strain mice; conditions: 30 mg/kg p.o., 30 min before hypoxia 200 mmHg, mice
Description: According to the method of Nakanishi et al described in Life Science, vol. 13, p. 467, 1973, 30 mg/kg of test compounds were orally administered to groups of six female dd-strain mice and 30 minutes later the survival time, i.e. time required until respiratory failure, was measured under the hypoxia condition of 200 mmHg. The extention of the survival time against the control group was expressed as a percentage and the results are summarized in Table 3.

[3] = Toxicity; assay type: in vivo, ddY-mice
Source text: Compounds of Examples 5, 11, 14, 15 and 55 were orally or intraperitoneally administered to groups of five ddY-mice.

[4] = test system: tonic seizure; experiment: Antianxiety effect (bicuculline-induced tonic seizure); assay type: in vivo; conditions: Mus musculus, po, 1 hour before bicuculline 0.6 mg/kg i.v., male ddY-mice; read-out: ED50 (prevention of tonic seizure in half of the animals)
Description: Test compounds were orally administered to groups of seven male ddY-mice and an hour later 0.6 mg/kg of bicuculline was intraveneously administered. […] The ED50 (mg/kg) was calculated by the probit method as the dose which is sufficient to prevent tonic seizure in half of the animals.

[5] = test system: gastric mucous membrane; experiment: Effect on injury of gastric mucous membrane (ethanol); assay type: in vivo, male Wistar rats; conditions: 30 min before ethanol 5 ml/kg p.o.
Description: Male Wistar rats, weighing 170-250 g, were deprived of food for 48 hours and water for 24 hours and then test compounds were intraperitoneally administered. Thirty minutes after administration of test compounds, 5 ml/kg of ethanol was orally administered. One hour later the stomach of each rat was excised and inflated with 8 ml of a 3% formalin solution. The stomach was incised along the greater curvature and the area (mm^2) of gastric injury were measured and summed. The square root of the sum was used as an ulcer index.

SMILES: Nc1nc(-c2ccc(CCN3CCOCC3)s2)cs1 [Example 65, 2Amino-4-[5-(2-morpholinoethyl)-2-thienyl]thiazole]
- Percent inhibition of acidity of gastric juice [1]: 39%
- Percent inhibition of volume of gastric juice secretion [1]: 61%
- Extention of the survival time (percentage, against control group) [2]: 158%

SMILES: Nc1nc(-c2ccc(CN3CCOCC3)s2)cs1 [Example 5, 2-Amino-4-(5-morpholinomethyl-2-thienyl)thiazole]
- survival of mice, intraperitoneal ([3]; in vivo): All mice survived
- survival of mice, oral ([3]; in vivo): All mice survived
- Percent inhibition of acidity of gastric juice [1]: 22%
- Percent inhibition of volume of gastric juice secretion [1]: 66%
- Extention of the survival time (percentage, against control group) [2]: 367%

SMILES: Nc1nc(-c2ccc(CCN3CCN(c4cccc(C(F)(F)F)c4)CC3)s2)cs1 [Example 47, 2-Amino-4-[5-(2-(4-(3-trifluoromethylphenyl)-1-piperazinyl)ethyl)-2-thienyl]thiazole]
- ED50 [4]: 21 mg/kg

SMILES: CC(=O)OCC(=O)NCc1ccc(-c2csc(N)n2)s1 [Example 11, 2-amino-4-(5-acetoxyacetylaminomethyl-2-thienyl) thiazole]
- survival of mice, intraperitoneal ([3]; in vivo): All mice survived
- survival of mice, oral ([3]; in vivo): All mice survived
- Percent inhibition (ulcer index, against control group) ([5]; 1 mg/kg i.p.): 73%

SMILES: CCN(CC)Cc1ccc(-c2csc(N)n2)s1.O=C(O)/C=C/C(=O)O [Example 4, 2-Amino-4-(5-diethylaminomethyl-2-thienyl)thiazole fumarate]
- Percent inhibition of acidity of gastric juice [1]: 38%
- Percent inhibition of volume of gastric juice secretion [1]: 65%

SMILES: CCOCC(=O)NCc1ccc(-c2csc(N)n2)s1 [Example 14, 2-Amino-4-(5-ethoxyacetylaminomethyl-2-thienyl)thiazole]
- survival of mice, intraperitoneal ([3]; in vivo): All mice survived
- survival of mice, oral ([3]; in vivo): All mice survived
- Percent inhibition of acidity of gastric juice [1]: 39%
- Percent inhibition of volume of gastric juice secretion [1]: 53%
- Percent inhibition (ulcer index, against control group) ([5]; 3 mg/kg i.p.): 35%
- Extention of the survival time (percentage, against control group) [2]: 204%

SMILES: CC(=O)NCc1ccc(-c2csc(N)n2)s1.Cl [Example 1, 2-amino-4-(5-acetylaminomethyl-2-thienyl)thiazole hydrochloride]
- Extention of the survival time (percentage, against control group) [2]: 280%

SMILES: Nc1nc(-c2ccc(CNC(=O)COc3ccccc3)s2)cs1.O=C(O)/C=C\C(=O)O [Example 15, 2-Amino-4-(5-phenoxyacetylaminomethyl-2-thienyl)thiazole maleate]
- survival of mice, intraperitoneal ([3]; 300 mg/kg intraperitoneal, five days after administration, ddY-mice): All mice survived
- survival of mice, oral ([3]; 1000 mg/kg oral, five days after administration, ddY-mice): All mice survived

SMILES: Nc1nc(-c2ccc(CN3CCCCC3)s2)cs1.O=C(O)/C=C/C(=O)O [Example 6, 2-Amino-4-(5-piperidinomethyl-2-thienyl)thiazole fumarate]
- Percent inhibition (ulcer index, against control group) ([5]; 10 mg/kg i.p.): 59%
- Extention of the survival time (percentage, against control group) [2]: 278%

SMILES: CC(C)NCc1ccc(-c2csc(N)n2)s1.O=C(O)/C=C\C(=O)O [Example 7, 2-Amino-4-(5-isopropylaminomethyl-2-thienyl)thiazole maleate]
- Percent inhibition of acidity of gastric juice [1]: 31%
- Percent inhibition of volume of gastric juice secretion [1]: 80%
- Percent inhibition (ulcer index, against control group) ([5]; 3 mg/kg i.p.): 51%
- Percent inhibition (ulcer index, against control group) ([5]; 10 mg/kg i.p.): 63%

SMILES: CC(Oc1ccccc1)C(=O)NCc1ccc(-c2csc(N)n2)s1.O=C(O)/C=C\C(=O)O (stereo not drawn) [Example 50, 2-Amino-4-[5-(2-phenoxypropionylaminomethyl)-2-thienyl]thiazole maleate]
- Percent inhibition of acidity of gastric juice [1]: 37%
- Percent inhibition of volume of gastric juice secretion [1]: 64%

SMILES: Nc1nc(-c2ccc(CCN3CCCCC3)s2)cs1.O=C(O)/C=C\C(=O)O [Example 54, 2-Amino-4-[5-(2-piperidinoethyl)-2-thienyl]thiazole maleate]
- ED50 [4]: 50 to 100 mg/kg

SMILES: Nc1nc(-c2ccc(CCN3CCN(c4cccc(Cl)c4)CC3)s2)cs1 [Example 55, 2-Amino-4-[5-(2-(4-(3-chlorophenyl)-1-piperazinyl)ethyl)-2-thienyl]thiazolehydrochloride]
- ED50 [4]: 50 mg/kg
- survival of mice, intraperitoneal ([3]; in vivo): All mice survived
- survival of mice, oral ([3]; in vivo): All mice survived

SMILES: c1ccc(Nc2nc(-c3ccc(CN4CCCCC4)s3)cs2)cc1 [Example 53, 2-Phenylamino-4-(5-piperidinomethyl-2-thienyl)thiazole]
- ED50 [4]: 50 to 100 mg/kg
